Measured values as given in patent US20250091994A1, “RAS/RAF BINDING INHIBITOR COMPOUND” (NATIONAL UNIVERSITY CORPORATION KOBE UNIVERSITY, priority 2021, published 2025).

Assays:
[1] = system: phosphorylated ERK (pERK) in HL60 cells; test: Ras-Raf signaling inhibition at culture cell level, pERK; type: cell-based; details: Homo sapiens, HL-60; HL60 (N-RasQ61L), 1 μM test compound, 3 hours
Experimental: The Ras-Raf signaling inhibitory activity of the compound of the present invention at a culture cell level was evaluated by the following method.
The HL60 cells described in Test Example 2 suspended in a medium containing 0.5% (v/v) FBS with each compound solution (final DMSO concentration: 1%), were seeded on a 12-well plate (2 to 4×10^5 cells/well), and the resulting mixture was then cultured at 37° C. in the presence of 5% CO2 for 3 hours.
After completion of the cell culture, proteins were extracted from the cells, using RIPA Buffer (Nacalai Tesque) containing a mixture of protease inhibitors and phosphatase inhibitors. An equivalent amount of protein was separated by standard SDS-PAGE and was then transferred onto a PVDF membrane. In order to detect the activation (phosphorylation) of MEK and ERK, downstream molecules of the Ras-Raf signaling pathway, the membrane was probed with 1000-fold diluted primary antibodies {phosphorylated MEK (pMEK: #9121), phosphorylated ERK (pERK: #9101), total MEK (tMEK: #9122), and total ERK (tERK: 9102); all from Cell signaling}, and then with a 1000-fold diluted horseradish peroxidase-labeled secondary antibody against rabbit immunoglobulin G. The immunoreactive signals were colored with EzWestLumi One (ATTO), and were then detected by Fusion FX (Vilber). Signal intensity was quantified by pixel counting. Inhibition by the test compound was determined according to the following equation: […]

[2] = system: large bowel cancer cells SW480 (K-RasG12V); test: Cell growth inhibition, adherent cells SW480; type: cell-based; details: Homo sapiens, 72 hours, read-out: SW480 (KRasG12V) % inhibition at 10 μM
Experimental: The cell growth inhibitory activity of the compound of the present invention on human culture cells having active-type mutation in Ras was evaluated by the below-mentioned method using suspension cancer cells {acute lymphoblastic leukemia cells CCRF-CEM (K-RasG12D), promyelocytic leukemia cells HL60 (N-RasQ61L), acute lymphoblastic leukemia cells MOLT4 (N-RasG12C), and small cell lung cancer cells SHP77 (K-RasG12V)} and adherent cancer cells {large bowel cancer cells SW480 (K-RasG12V) and large bowel cancer cell SW620 (K-RasG12V)}.
(Case of adherent cells) The cells suspended in a medium containing 10% FBS (1 to 2×10^4 cells/well) were seeded on a 96-well plate, and were then cultured at 37° C. in the presence of […]. Thereafter, the medium was exchanged with a medium containing […], to which each compound solution (final DMSO concentration: […]) had been added, and the cells were then cultured at 37° C. in the presence of […] for 72 hours.
Thereafter, the number of viable cells was measured using Cell Counting Reagent (Nacalai Tesque) in accordance with the manufacturer's instructions. Inhibition by the test compound was determined according to the following equation: […]

In the case of `CC(=O)N1/C(=C\c2nc3cc(C(=O)N4CCOCC4)ccc3s2)C(=O)c2ccccc21` [Example 47, (Z)-1-acetyl-2-((5-(morpholine-4-carbonyl)benzo [d]thiazol-2-yl)-methylene)-indolin-3-one], the inhibition at 1 µM [1] is reported as 94% and the inhibition at 10 µM [2] is reported as 51%.
